According to PubChem BioAssay AID2060901 (Molecular Pharmacology Branch, DTP, NCI, 2025):
pIC50: −log10 of the molar value. Several values for one entry are separate records, joined by “and”; a condition that tells them apart may be missing. Equal entries are not always repeated.

System: 422866-222-R5-J1-PDC complex spheroids viability
Assay: Anticancer human tumor 422866-222-R5-J1-PDC patient-derived pancreatic adenocarcinoma cell line growth inhibition [RAS]
Details: for viability, T/C: stronger effect = lower value
Description: RAS pathway inhibitors in Combinations in Complex Spheroids
A high-throughput screen of multi-cell type tumor spheroids was designed to identify active combinations of RAS pathway inhibitors and targeted small molecules. Complex spheroids include a stromal component modeled by human endothelial cells (HUVEC) and fibroblasts modeled by human mesenchymal stem cells (MSCs). The concentration ranges selected for each drug and investigational agent were based upon clinically achievable concentrations if the clinical Cmax of the agent was known.
Compounds. The drugs and investigational agents: abemaciclib (NSC768073), cobimetinib (NSC768068), divarasib (GDC6063, NSC841802), docetaxel (NSC628503), GDC-1971 (RLY-1971, NSC841576), gemcitabine (NSC613327), inavolisib (NSC800729), ipatasertib (NSC767898), KB-0742 (NSC834161), MRTX-1133 (NSC836407), osimertinib (NSC779217), RMC-4630 (NSC839698), RMC-6236 (NSC851965), RMC-6291 (NSC852671), Ro-3306 (NSC812927), sapanisertib (NSC764658), SN-38 (NSC673596), staurosporine (NSC755774), SY5609 (NSC837396), and tovorafenib (DAY101, NSC766906), were obtained from the National Cancer Institute (NCI) Developmental Therapeutics Program Chemical Repository. The FDA-approved anticancer drug set is available from the NCI Developmental Therapeutics Program. […] The stock solutions were prepared in dimethyl sulfoxide (DMSO, Sigma-Aldrich, St. Louis, MO, cat. D2650) at 800-fold the tested concentration and stored at -70 degrees C prior to their use. All drugs and investigational agents were tested over a range starting from a high concentration at or near the clinical Cmax and decreasing in half-log increments. If the clinical Cmax for an agent had not been determined, the highest concentration tested was 10 microM.
Cell Culture. All cells were maintained in an incubator at 37 degrees C and 5% CO2 with 95% humidity. The PDC lines were cultured according to standard operating procedures established by the NCI PDMR. All PDCs were thawed and cultured in Matrigel-coated flasks prepared with a working solution of 1X Ham's F-12 nutrient mix, without supplementation (Invitrogen, Waltham, MA, cat. 11765054), 100 U/mL penicillin-streptomycin (Invitrogen, cat. 15140122), and 2.5% Matrigel (Corning Inc., Corning, NY, cat. 354248) for the first three passages. The 362531-283-R-J2-PDC and 782815-120-R-J1-PDC lines were cultured in 6C/Colon 1B media, which includes advanced DMEM/F-12 (Thermo Fisher Scientific, cat. 12634028), 10 mM HEPES (Thermo Fisher Scientific, cat. 15630080), 1X GlutaMAX supplement (Thermo Fisher Scientific, cat. 35050061), 0.1 mg/mL primocin (InvivoGen, San Diego, CA, cat. ant-pm-2), 10% defined fetal bovine serum, heat inactivated (HyClone Laboratories Inc., Logan, UT, cat. SH30070.03HI), 50% L-WRN conditioned media (ATCC, cat. CRL-3276), 1.25 mM N-Acetyl-L-cysteine (Sigma-Aldrich, cat. A9165), 10 mM nicotinamide (Sigma-Aldrich, cat. N0636), 1X B-27 supplement (Thermo Fisher Scientific, cat. 17504044), 1X N-2 supplement (Thermo Fisher Scientific, cat. 17502048), 50 ng/mL human EGF (Thermo Fisher Scientific, cat. PHG0311), and 10 microM Y-27632 dihydrochloride (Tocris Bioscience, cat. 1254). The K12877-001-R-J1-PDC line was cultured in 6I media, which includes all 6C/Colon 1B media plus 10 ng/mL human FGF-10 (PeproTech, cat. 100-26), 1 ng/mL human FGF-2 (PeproTech, cat. 100-18B), 1 µM prostaglandin E2 (Tocris Bioscience, cat. 2296), […] hydrocortisone (Sigma-Aldrich, cat. H4001), and […] bovine insulin (Sigma-Aldrich, cat. I6634). The K86415-001-R-J1-PDC line was cultured in 6D media, which includes all 6C/Colon 1B media components minus the L-WRN conditioned media. The 485176-168-R4-J1-PDC was cultured in PANC media, which includes all 6C/Colon 1B media plus 100 ng/mL human FGF-10 (PeproTech, cat. 100-26), 500 nM SB-431542 (Selleckchem, cat. S1067), and 10 nM gastrin (Tocris Bioscience, cat. 3006). […]

[1] = curve of first compound, second compound 0.0316 µM
[2] = curve of first compound, second compound 0.1 µM
[3] = curve of first compound, second compound 0.316 µM
[4] = curve of first compound, second compound 1 µM
[5] = second compound 0.0316 µM, first compound 0.0316 µM
[6] = second compound 0.0316 µM, first compound 0.1 µM
[7] = second compound 0.0316 µM, first compound 0.316 µM
[8] = second compound 0.0316 µM, first compound 1 µM
[9] = second compound 0.0316 µM, first compound 3.16 µM
[10] = second compound 0.0316 µM, first compound 10 µM
[11] = second compound 0.1 µM, first compound 0.0316 µM
[12] = second compound 0.1 µM, first compound 0.1 µM
[13] = second compound 0.1 µM, first compound 0.316 µM
[14] = second compound 0.1 µM, first compound 1 µM
[15] = second compound 0.1 µM, first compound 3.16 µM
[16] = second compound 0.1 µM, first compound 10 µM
[17] = second compound 0.316 µM, first compound 0.0316 µM
[18] = second compound 0.316 µM, first compound 0.1 µM
[19] = second compound 0.316 µM, first compound 0.316 µM
[20] = second compound 0.316 µM, first compound 1 µM
[21] = second compound 0.316 µM, first compound 3.16 µM
[22] = second compound 0.316 µM, first compound 10 µM
[23] = second compound 1 µM, first compound 0.0316 µM
[24] = second compound 1 µM, first compound 0.1 µM
[25] = second compound 1 µM, first compound 0.316 µM
[26] = second compound 1 µM, first compound 1 µM
[27] = second compound 1 µM, first compound 3.16 µM
[28] = second compound 1 µM, first compound 10 µM
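For viability, T/C in this document: 100% = DMSO vehicle control viability.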

CC(C)NCC(C(=O)N1CCN(c2ncnc3c2C(C)CC3O)CC1)c1ccc(Cl)cc1 (configuration not stated) + C#Cc1c(F)ccc2cc(O)cc(-c3ncc4c(N5CC6CCC(C5)N6)nc(OCC56CCCN5CC(F)C6)nc4c3F)c12
pIC50 [1]: < 5.00 | pIC50 [2]: < 5.00 | pIC50 [3]: < 5.00 | pIC50 [4]: > 7.50 | pIC50 (curve of first compound, second compound 3.16 µM): > 7.50 | pIC50 (curve of first compound, second compound 10 µM): > 7.50 | viability, T/C [5]: 87.4% | viability, T/C [6]: 79% | viability, T/C [7]: 88% | viability, T/C [8]: 100% | viability, T/C [9]: 103% | viability, T/C [10]: 121% | viability, T/C [11]: 86.9% | viability, T/C [12]: 64.4% | viability, T/C [13]: 78.3% | viability, T/C [14]: 74.7% | viability, T/C [15]: 94.2% | viability, T/C [16]: 109% | viability, T/C [17]: 60.3% | viability, T/C [18]: 46.1% | viability, T/C [19]: 58.5% | viability, T/C [20]: 69.9% | viability, T/C [21]: 81.8% | viability, T/C [22]: 85.2% | viability, T/C [23]: 39.9% | viability, T/C [24]: 35.3% | viability, T/C [25]: 38.9% | viability, T/C [26]: 48.6% | viability, T/C [27]: 66.5% | viability, T/C [28]: 58.9% | viability, T/C (second compound 3.16 µM, first compound 0.0316 µM): 25.6% | viability, T/C (second compound 3.16 µM, first compound 0.1 µM): 24.3% | viability, T/C (second compound 3.16 µM, first compound 0.316 µM): 19.6% | viability, T/C (second compound 3.16 µM, first compound 1 µM): 29.4% | viability, T/C (second compound 3.16 µM, first compound 3.16 µM): 38.4% | viability, T/C (second compound 3.16 µM, first compound 10 µM): 40.9% | viability, T/C (second compound 10 µM, first compound 0.0316 µM): 17.3% | viability, T/C (second compound 10 µM, first compound 0.1 µM): 19% | viability, T/C (second compound 10 µM, first compound 0.316 µM): 14.6% | viability, T/C (second compound 10 µM, first compound 1 µM): 12% | viability, T/C (second compound 10 µM, first compound 3.16 µM): 18.8% | viability, T/C (second compound 10 µM, first compound 10 µM): 18.8%

C[C@@H](NC(=O)c1ncnc(N)c1Cl)c1ncc(C(=O)Nc2cc(C(F)(F)F)c(Cl)cn2)s1
viability, T/C (compound 0.0316 µM): 131% and 103% (2×) and 113% | viability, T/C (compound 0.1 µM): 124% and 116% (2×) and 104% | viability, T/C (compound 0.316 µM): 119% [middle of 4 runs] | viability, T/C (compound 1 µM): 118% [middle of 4 runs] | viability, T/C (compound 3.16 µM): 104% (2×) and 83.4% and 92.5% | viability, T/C (compound 10 µM): 76.6% [middle of 4 runs] | pIC50 (curve of compound): < 5.00

CC(=O)OC12COC1CC(O)C1(C)C(=O)C(O)C3=C(C)C(OC(=O)C(O)C(NC(=O)OC(C)(C)C)c4ccccc4)CC(O)(C(OC(=O)c4ccccc4)C21)C3(C)C (configuration not stated) + C=CC(=O)N1CCN(c2nc(OCC3CCCN3C)nc3c(F)c(-c4nc(N)cc(C)c4C(F)(F)F)c(Cl)cc23)C(C)C1
pIC50 (curve of first compound, second compound 0.00316 µM): > 7.50 | pIC50 (curve of first compound, second compound 0.01 µM): > 7.50 | pIC50 [1]: > 7.50 | pIC50 [2]: > 7.50 | pIC50 [3]: > 7.50 | pIC50 [4]: > 7.50 | viability, T/C (second compound 0.00316 µM, first compound 0.0316 µM): 19.5% | viability, T/C (second compound 0.00316 µM, first compound 0.1 µM): 21.1% | viability, T/C (second compound 0.00316 µM, first compound 0.316 µM): 26.7% | viability, T/C (second compound 0.00316 µM, first compound 1 µM): 22% | viability, T/C (second compound 0.00316 µM, first compound 3.16 µM): 19.1% | viability, T/C (second compound 0.00316 µM, first compound 10 µM): 26% | viability, T/C (second compound 0.01 µM, first compound 0.0316 µM): 21.5% | viability, T/C (second compound 0.01 µM, first compound 0.1 µM): 20.8% | viability, T/C (second compound 0.01 µM, first compound 0.316 µM): 20.4% | viability, T/C (second compound 0.01 µM, first compound 1 µM): 17.6% | viability, T/C (second compound 0.01 µM, first compound 3.16 µM): 20.4% | viability, T/C (second compound 0.01 µM, first compound 10 µM): 19.6% | viability, T/C [5]: 17.9% | viability, T/C [6]: 20.8% | viability, T/C [7]: 19.3% | viability, T/C [8]: 17% | viability, T/C [9]: 21.2% | viability, T/C [10]: 20.9% | viability, T/C [11]: 17.3% | viability, T/C [12]: 21% | viability, T/C [13]: 18.1% | viability, T/C [14]: 19.2% | viability, T/C [15]: 22.5% | viability, T/C [16]: 22.5% | viability, T/C [17]: 15.3% | viability, T/C [18]: 17.8% | viability, T/C [19]: 19.5% | viability, T/C [20]: 17.6% | viability, T/C [21]: 18.4% | viability, T/C [22]: 23.3% | viability, T/C [23]: 16.6% | viability, T/C [24]: 17.7% | viability, T/C [25]: 22.7% | viability, T/C [26]: 20% | viability, T/C [27]: 22.3% | viability, T/C [28]: 22.6%

CCN1CCN(Cc2ccc(Nc3ncc(F)c(-c4cc(F)c5nc(C)n(C(C)C)c5c4)n3)nc2)CC1
viability, T/C (compound 0.00316 µM): 93% [middle of 4 runs] | viability, T/C (compound 0.0316 µM): 90.8% [middle of 4 runs] | viability, T/C (compound 0.1 µM): 77.8% [middle of 4 runs] | viability, T/C (compound 0.316 µM): 78% [middle of 4 runs] | viability, T/C (compound 1 µM): 87.2% [middle of 4 runs] | pIC50 (curve of compound): < 6.00

CCc1c2c(nc3ccc(O)cc13)-c1cc3c(c(=O)n1C2)COC(=O)[C@]3(O)CC
viability, T/C (compound 0.000949 µM): 77.2% [middle of 4 runs] | viability, T/C (compound 0.003 µM): 51.2% [middle of 4 runs] | viability, T/C (compound 0.00949 µM): 51.5% [middle of 4 runs] | viability, T/C (compound 0.03 µM): 53.4% [middle of 4 runs] | viability, T/C (compound 0.3 µM): 41.4% [middle of 4 runs]
